Consider 1 compound from patent US20120129811A1, “TRICYCLIC INHIBITORS OF PRO-MATRIX METALLOPROTEINASE ACTIVATION” (priority 2010, published 2012).

pIC50: −log10 of the molar value.

For experiment [1], the target named is T1, proMMP9 processing to active MMP9 in HFL-1 cells (Homo sapiens, UniProt P14780).
T1 construct: host or cells: HFL-1 human fetal lung fibroblasts, TNFα plus neutrophil elastase
Put plainly: Activation of proMMP9 by human fetal lung fibroblast (HFL-1) cultures (Western blot). The class given is cell-based. The procedure: Activation of proMMP 9 by Human Fetal Lung Fibroblast Cultures
Compound-α was assessed additionally for ability to block the maturation of proMMP9 to active MMP9 in cultures of human fetal lung fibroblasts (HFL-1, American Type Culture Collection # CCL-153). Unlike rat synoviocytes, HFL-1 cells were unable to process proMMP9 to the active form without addition of neutrophil elastase. […] Rather, the function of elastase in this assay may be to inactivate tissue inhibitors of matrix metalloproteinases (TIMPs) that repress endogenous pathways of MMP9 activation (Am J Respir Crit. Care Med; 1999; 159:1138-46).
HLF-1 were maintained in monolayer culture in DMEM with 10% FCS and were used between passage numbers 5-15. HLF-1 were embedded in collagen gels as described for rat SCW synoviocytes (vida supra). Half mL gels containing 0.4 million cells were dislodged into wells of 12 well Costar plates containing 1 mL/well of DMEM adjusted to contain 0.05% BSA and 100 ng/mL human TNFα (R&D Systems Cat #210-TA/CF). After overnight culture (37° C. and 5% CO2) wells were adjusted to contain an additional 0.5 mL of DMEM containing 0.05% BSA and with or without 13.2 μM Compound-α (final concentration was 3.3 μM Compound-α). Next, cultures were adjusted to contain 30 nM human elastase (Innovative Research). The plates were cultured an additional 72 hrs, at which time MMP9 secreted into the conditioned media was bound to gelatin-sepharose and evaluated by Western blot analysis as described for the rat synoviocyte cultures (vida supra). mAb-51/82 detected three forms of MMP9 in HFL-1 cultures.
A second experiment was performed to determine if the 80 kD form was mature active MMP9 and to determine the potency of Compound-α as an inhibitor of MMP9 maturation in this assay. HFL-1 cells embedded in collagen gels were cultured as described above in the presence of TNFα overnight and the cultures were then adjusted to contain 30 nM elastase and graded concentrations of Compound-α for an additional 72 hrs at which time MMP9 secreted into the conditioned media was bound to gelatin-sepharose and evaluated by Western blot analysis for active MMP9 using pAb-1246 raised against the N-terminal neoepitope of active MMP9 (Table 5). In the absence of Compound-α, pAb-1246 readily detected MMP9 with an electrophoretic mobility of approximately 80 kD. […] Inhibition occurred over a dose range with an IC50 of approximately 0.3 μM Compound-α.

Experiment [2] has as its target T2, proMMP9 activation to active MMP9 in rat synoviocytes (Rattus norvegicus, UniProt P50282).
T2 construct: endogenous in cells; host or cells: primary synoviocytes from SCW-arthritic female Lewis rats, TNFα-stimulated
The experiment can be described thus: Activation of proMMP9 in rat synoviocyte cultures (Western blot). The class given is cell-based. From the text: Activation of proMMP9 in Rat Synoviocyte Cultures
A primary synoviocytes line was derived from the periarticular tissue of arthritic rats. Arthritis was induced in female Lewis rats following an i.p. administration of streptococcal cell wall peptidoglycan polysaccharides (J Exp Med 1977; 146:1585-1602). Rats with established arthritis were sacrificed, and hind-limbs were severed, immersed briefly in 70% ethanol, and placed in a sterile hood. The skin was removed and the inflamed tissue surrounding the tibia-tarsal joint was harvested using a scalpel. Tissue from six rats was pooled, minced to approximately 8 mm^3 pieces, and cultured in Dulbecco's Modified Eagle's Medium (DMEM) containing 15% fetal calf serum (FCS). In the following weeks, cells migrated out of the tissue piece, proliferated, and formed a monolayer of adherent cells. The synoviocytes were lifted from culture plates with 0.05% trypsin and passaged weekly at 1:4 ratios in DMEM containing 10% FCS. Synoviocytes were used at passage 9 to investigate the ability of Compound-α to inhibit the maturation of MMP9 to active form.
Rat synoviocytes spontaneously expressed and activated MMP9 when cultured in collagen gels and stimulated with tumor necrosis factor-alpha (TNFα) (FIG. 1 and Table 3). Eight volumes of an ice-cold solution of 3.8 mg/mL rat tail collagen (Sigma Cat #C3867-1VL) were mixed with 1 volume of 1 M sodium bicarbonate and 1 volume of 10× Roswell Park Memorial Institute medium. The pH of the mixture was adjusted to pH 7 with 1 N sodium hydroxide and equal volumes of the pH-adjusted collagen solution were mixed with DMEM containing 0.8 million synoviocytes per mL. One half mL volumes were dispensed into Costar 24-well culture dishes and placed for one hr at 37° C. and 5% CO2, during which time the collagen solution formed a gel. Individual gels were dislodged into wells of 12-well Costar plates containing 1 mL/well of DMEM adjusted to contain 0.05% BSA and 100 ng/mL mouse TNFα (R&D Systems Cat #410-MT-010). […] After overnight culture at 37° C. and 5% CO2, wells were adjusted to contain an additional 0.5 mL of DMEM containing 0.05% BSA and Compound-α at 4× the final desired concentration (final culture volumes were 2 mL). The plates were cultured an additional 48 hrs, at which time 1 mL of conditioned media were harvested into fresh eppendorf tubes containing 40 μL/mL of a 50% slurry of gelatin-conjugated sepharose (GE Healthcare Cat #17-0956-01). Samples were rotated for 2 hrs at 4° C. before centrifugation 1 min×200 g. Supernatants were discarded. The gelatin-sepharose pellets were washed once with 1 mL of ice cold DMEM, resuspended in 50 μL of 2× reducing Leamli buffer and heated 5 min at 95° C. Fifteen μL of eluted proteins were resolved on 4-12% NuPAGE gels and transferred to 0.45 μm pore-sized nitrocellose blots. Next, blots were incubated in blocking buffer (5% milk in Tris-buffered saline containing 0.1% Tween-20) for 1 hr at RT and probed overnight (4° C.) with blocking buffer containing 1 μg/mL primary antibodies. Blots were next probed 1 hr at RT with 1/10,000 dilutions of goat anti-mouse IgG-HRP or goat anti-rabbit IgG-HRP (Santa Cruz) in blocking buffer and developed using SuperSignal® West Fempto Maximum Sensitivity Substrate. Chemiluminesence signal was analyzed using a ChemiDoc imaging system (BioRad Laboratories) and Quantity One® image software. Electrophoretic mobility was estimated based on the mobility of standards (Novex Sharp Pre-Stained Protein Standards P/N 57318). […]
In general terms: Immunoblotting shows a protein as a band on a membrane.

T2 sequence (P50282 20-708 limits assumed): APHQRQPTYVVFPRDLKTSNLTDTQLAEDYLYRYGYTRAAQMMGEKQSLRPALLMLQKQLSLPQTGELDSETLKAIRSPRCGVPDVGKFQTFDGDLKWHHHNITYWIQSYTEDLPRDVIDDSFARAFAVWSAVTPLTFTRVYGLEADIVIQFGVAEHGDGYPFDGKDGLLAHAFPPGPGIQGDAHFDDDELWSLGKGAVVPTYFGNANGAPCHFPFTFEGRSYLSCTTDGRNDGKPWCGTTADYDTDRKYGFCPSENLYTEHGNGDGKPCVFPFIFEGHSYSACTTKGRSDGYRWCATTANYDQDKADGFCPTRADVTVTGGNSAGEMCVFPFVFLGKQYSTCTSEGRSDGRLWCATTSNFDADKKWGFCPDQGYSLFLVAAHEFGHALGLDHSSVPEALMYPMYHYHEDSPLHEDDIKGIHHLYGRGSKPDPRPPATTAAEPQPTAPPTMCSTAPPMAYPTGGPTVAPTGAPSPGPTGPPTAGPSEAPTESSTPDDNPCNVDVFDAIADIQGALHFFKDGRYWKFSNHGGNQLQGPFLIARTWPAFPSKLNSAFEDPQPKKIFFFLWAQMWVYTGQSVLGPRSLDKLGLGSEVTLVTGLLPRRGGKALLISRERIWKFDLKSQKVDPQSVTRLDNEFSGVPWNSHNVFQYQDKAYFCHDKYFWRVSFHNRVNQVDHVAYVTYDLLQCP
T1 sequence (P14780 20-707 limits assumed): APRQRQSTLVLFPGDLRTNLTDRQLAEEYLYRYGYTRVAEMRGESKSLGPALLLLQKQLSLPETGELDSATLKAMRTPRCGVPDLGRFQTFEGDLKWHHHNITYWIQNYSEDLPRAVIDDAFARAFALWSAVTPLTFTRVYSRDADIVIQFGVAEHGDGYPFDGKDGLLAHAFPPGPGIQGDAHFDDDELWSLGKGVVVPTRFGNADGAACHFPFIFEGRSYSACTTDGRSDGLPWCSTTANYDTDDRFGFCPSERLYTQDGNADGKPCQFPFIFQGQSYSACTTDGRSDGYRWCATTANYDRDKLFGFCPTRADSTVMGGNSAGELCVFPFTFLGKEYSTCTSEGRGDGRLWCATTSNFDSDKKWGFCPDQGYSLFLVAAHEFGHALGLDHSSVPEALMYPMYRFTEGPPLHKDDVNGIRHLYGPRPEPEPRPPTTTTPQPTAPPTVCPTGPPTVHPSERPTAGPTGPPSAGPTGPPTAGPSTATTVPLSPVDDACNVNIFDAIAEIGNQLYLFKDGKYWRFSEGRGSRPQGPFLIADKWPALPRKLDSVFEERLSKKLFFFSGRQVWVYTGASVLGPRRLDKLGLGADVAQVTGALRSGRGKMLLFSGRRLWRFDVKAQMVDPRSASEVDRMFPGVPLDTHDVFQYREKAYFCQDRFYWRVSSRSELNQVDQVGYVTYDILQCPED

As for `Cc1nc(C)c(-c2csc(Nc3cc(S(N)(=O)=O)ccc3OC(C)C)n2)s1` [Compound α, 3-(2′,4′-Dimethyl-[4,5′]bithiazolyl-2-ylamino)-4-isopropoxy-benzenesulfonamide.HBr], the “Signal, Total” value in experiment [1] (3.3 μM Compound-α, 30 nM elastase, final 72 hrs, mAb-L51/82) worked out at 91346 INT * mm^2. Besides, in experiment [1] (3.3 μM Compound-α, mAb-L51/82), the “Percent of total signal, 80 kD” value stood at 7%. Also, the “Percent of total signal, 86 kD” value in experiment [1] (3.3 μM Compound-α, mAb-L51/82) is given as 47%. In experiment [1] (3.3 μM Compound-α, mAb-L51/82), the “Percent of total signal, 100 kD” value is recorded as 46%. In addition, the inhibition (usually the percentage by which the read-out fell short of the control) at 0.12 µM in experiment [1] (HFL1, 0.12 μM Compound-α, active MMP9, pAb-1246) came to 0%. For the same compound, the inhibition at 0.37 µM in experiment [1] (HFL1, 0.37 μM Compound-α, active MMP9, pAb-1246) turned out to be 73%; in experiment [2] (0.37 μM Compound-α, 80 kD active MMP9, pAb-1246) it was 12%. Further, the inhibition at 1.1 µM in experiment [1] (HFL1, 1.1 μM Compound-α, active MMP9, pAb-1246) came to 99%; in experiment [2] (1.1 μM Compound-α, 80 kD active MMP9, pAb-1246), 46%. The inhibition at 3.3 µM was 100% in experiment [1] (HFL1, 3.3 μM Compound-α, active MMP9, pAb-1246) and 86% in experiment [2] (3.3 μM Compound-α, 80 kD active MMP9, pAb-1246). In addition, the inhibition at 10 µM in experiment [1] (HFL1, 10 μM Compound-α, active MMP9, pAb-1246) was found to be 100%; in experiment [2] (10 μM Compound-α, 80 kD active MMP9, pAb-1246), 97%. The pIC50 (in general, −log10 of the IC50, conventionally taken in molar units) is roughly 6.52 in experiment [1] (HFL-1 cultures, pAb-1246, read-out: IC50 for inhibition of processing of proMMP9 to active MMP9) and roughly 5.96 in experiment [2] (rat synoviocytes, pAb-1246 band chemiluminescence, read-out: IC50 for inhibition of production of active MMP9).
